Source: patent US20260234161A1, “RIFABUTIN ANALOGS FOR THE TREATMENT OF BACTERIAL DISEASES” (BIOVERSYS AG, priority 2023, published 2026)
Converted amounts (≈) assume the structure as drawn.

Legend:
Type in all cases: cell-based
[1] = test system: S. aureus (UAMS-1625 strain); test: MIC by broth microdilution, S. aureus; conditions: Staphylococcus aureus, 20 h, read-out: MIC S. aureus
Protocol: (§1) MIC values were determined by broth microdilution method according to the CLSI guidelines with the following exceptions: MIC against A. baumannii was performed in RPMI medium supplemented with 10% FCS and MIC against M. abscessus was performed in Middlebrook 7H9 broth supplemented with Middlebrook ADC growth supplement (10%; see column “M. abscessus 7H9”). MIC forM abscessus was determined a second time in standard cation adjusted Mueller Hinton broth without growth supplement (see colum “M. abscessus MH”). All other MIC were performed in standard cation adjusted Mueller Hinton broth, supplemented with Middlebrook ADC growth supplement (5%) for the slow growing mycobacteria (M. xenopi, M. kansasii and M. avium).
(§2) The following procedure applies to all species tested, except forM xenopi. From a fresh culture plate (from overnight to several days depending on the bacteria), cells were resuspended in 0.9% (w/v) saline solution and bacterial inoculum was prepared in the respective testing medium with 5×10^5 CFU/mL. For M. xenopi, the inoculum was prepared from a fresh liquid culture (7H9+ADC). The appropriate volumes of a 10 mg/mL compound solution were directly dispensed in the 96-well assay plate using a digital dispenser to create two-fold dilution series from 32 to 0.002 μg/mL final concentration for A. baumannii and S. aureus; from 16 to 0.016 μg/mL for M. abscessus and M. avium; and from 1 to 6×10^−5 μg/mL for M. kansasii and M. xenopi. 100 μL of bacterial suspension was finally added to the compounds. Plates were covered and incubated without shaking at 35° C. for 20 hours for A. baumanii and S. aureus; at 30° C. for 4 days for M. abscessus; and at 37° C. for 7 days (at least) for M. kansasii (covered with aluminum foil to avoid light exposure), M. avium and M. xenopi. Every experiment contained an antibiotic as quality control. MIC was determined visually as the lowest concentration of a compound that prevents visible growth of the bacteria.
(§3) The in vitro activity of compounds described herein was determined against S. aureus (UAMS-1625 strain), A. baumannii (HUMC1 strain), M. abscessus (ATCC 19977), M. kansasii (ATCC 12478), M. avium (ATCC 25291), and M. xenopi (ATCC 19250).

[2] = test system: M. abscessus (ATCC 19977); test: MIC by broth microdilution, M. abscessus in cation adjusted Mueller Hinton broth; conditions: Mycobacteroides abscessus, ATCC19977, 96 h; ATCC 19977; cation adjusted Mueller Hinton broth without growth supplement; 30° C., 4 days; read-out: MIC M. abscessus MH
Protocol: as §1, §2, §3

[3] = test system: A. baumannii (HUMC1 strain); test: MIC by broth microdilution, A. baumannii (RPMI + 10% FCS); conditions: Acinetobacter baumannii; HUMC1 strain; RPMI medium + 10% FCS; 35° C., 20 hours; read-out: MIC A. baumannii
Protocol: as §1, §2, §3

Row | SMILES | MIC [1] | MIC [2] | MIC [3]
1 | CO[C@H]1/C=C/O[C@@]2(C)Oc3c(C)c(O)c4c(c3C2=O)C2=NC3(CCN(CC(C)C)CC3)NC2=C(NC(=O)/C(C)=C\C=C\[C@H](C)[C@H](O)[C@@H](C)[C@@H](O)[C@@H](C)[C@H](OC(=O)N2CCN(CC3CCOCC3)CC2)[C@@H]1C)C4=O [Compound 53] | 0.125 µg/mL (≈ 0.123 µM) | 0.125 µg/mL (≈ 0.123 µM) | 0.004 µg/mL
2 | COCCN1CCN(C(=O)O[C@H]2[C@H](C)[C@H](O)[C@H](C)[C@@H](O)[C@@H](C)/C=C/C=C(/C)C(=O)NC3=C4NC5(CCN(CC(C)C)CC5)N=C4c4c(c(O)c(C)c5c4C(=O)[C@@](C)(O/C=C/[C@H](OC)[C@H]2C)O5)C3=O)CC1 [Compound 48] | 0.06 µg/mL (≈ 0.0615 µM) | 1 µg/mL (≈ 1.03 µM) | ≤ 0.016 µg/mL
3 | CO[C@H]1/C=C/O[C@@]2(C)Oc3c(C)c(O)c4c(c3C2=O)C2=NC3(CCN(CC(C)C)CC3)NC2=C(NC(=O)/C(C)=C\C=C\[C@H](C)[C@H](O)[C@@H](C)[C@@H](O)[C@@H](C)[C@H](OC(=O)N2CCN(c3nccs3)CC2)[C@@H]1C)C4=O [Compound 57] | 0.06 µg/mL (≈ 0.06 µM) | 0.5 µg/mL (≈ 0.5 µM) | 0.03 µg/mL
4 | CO[C@H]1/C=C/O[C@@]2(C)Oc3c(C)c(O)c4c(c3C2=O)C2=NC3(CCN(CC(C)C)CC3)NC2=C(NC(=O)/C(C)=C\C=C\[C@H](C)[C@H](O)[C@@H](C)[C@@H](O)[C@@H](C)[C@H](OC(=O)N2CC3(CCN(CC5CCCCC5)CC3)C2)[C@@H]1C)C4=O [Compound 66] | 0.125 µg/mL (≈ 0.119 µM) | 0.125 µg/mL (≈ 0.119 µM) | 0.004 µg/mL
5 | CO[C@H]1/C=C/O[C@@]2(C)Oc3c(C)c(O)c4c(c3C2=O)C2=NC3(CCN(CC(C)C)CC3)NC2=C(NC(=O)/C(C)=C\C=C\[C@H](C)[C@H](O)[C@@H](C)[C@@H](O)[C@@H](C)[C@H](OC(=O)N2CCCN(CC3CCCCC3)CC2)[C@@H]1C)C4=O [Compound 41] | 1 µg/mL (≈ 0.973 µM) | 0.125 µg/mL (≈ 0.122 µM) | 0.06 µg/mL
6 | CCCN1CCC(NC(=O)O[C@H]2[C@H](C)[C@H](O)[C@H](C)[C@@H](O)[C@@H](C)/C=C/C=C(/C)C(=O)NC3=C4NC5(CCN(CC(C)C)CC5)N=C4c4c(c(O)c(C)c5c4C(=O)[C@@](C)(O/C=C/[C@H](OC)[C@H]2C)O5)C3=O)CC1 [Compound 75] | 0.06 µg/mL (≈ 0.0617 µM) | 1 µg/mL (≈ 1.03 µM) | 0.001 µg/mL
7 | CCN1CCC(NC(=O)O[C@H]2[C@H](C)[C@H](O)[C@H](C)[C@@H](O)[C@@H](C)/C=C/C=C(/C)C(=O)NC3=C4NC5(CCN(CC(C)C)CC5)N=C4c4c(c(O)c(C)c5c4C(=O)[C@@](C)(O/C=C/[C@H](OC)[C@H]2C)O5)C3=O)CC1 [Compound 74] | 0.03 µg/mL (≈ 0.0313 µM) | 2 µg/mL (≈ 2.09 µM) | ≤ 0.001 µg/mL
8 | CO[C@H]1/C=C/O[C@@]2(C)Oc3c(C)c(O)c4c(c3C2=O)C2=NC3(CCN(CC(C)C)CC3)NC2=C(NC(=O)/C(C)=C\C=C\[C@H](C)[C@H](O)[C@@H](C)[C@@H](O)[C@@H](C)[C@H](OC(=O)N2CCN(Cc3ccco3)CC2)[C@@H]1C)C4=O [Compound 55] | 0.125 µg/mL (≈ 0.125 µM) | 2 µg/mL (≈ 2.01 µM) | ≤ 0.016 µg/mL
9 | CO[C@H]1/C=C/O[C@@]2(C)Oc3c(C)c(O)c4c(c3C2=O)C2=NC3(CCN(CC(C)C)CC3)NC2=C(NC(=O)/C(C)=C\C=C\[C@H](C)[C@H](O)[C@@H](C)[C@@H](O)[C@@H](C)[C@H](OC(=O)NC2CCN(C(C)C)CC2)[C@@H]1C)C4=O [Compound 76] | 0.03 µg/mL (≈ 0.0308 µM) | 2 µg/mL (≈ 2.06 µM) | ≤ 0.001 µg/mL
10 | CO[C@H]1/C=C/O[C@@]2(C)Oc3c(C)c(O)c4c(c3C2=O)C2=NC3(CCN(CC(C)C)CC3)NC2=C(NC(=O)/C(C)=C\C=C\[C@H](C)[C@H](O)[C@@H](C)[C@@H](O)[C@@H](C)[C@H](OC(=O)N2CCC(N3CCCC3)CC2)[C@@H]1C)C4=O [Compound 62] | 0.06 µg/mL (≈ 0.0609 µM) | 1 µg/mL (≈ 1.01 µM) | ≤ 0.016 µg/mL
11 | CCCN1CCN(C(=O)O[C@H]2[C@H](C)[C@H](O)[C@H](C)[C@@H](O)[C@@H](C)/C=C/C=C(/C)C(=O)NC3=C4NC5(CCN(CC(C)C)CC5)N=C4c4c(c(O)c(C)c5c4C(=O)[C@@](C)(O/C=C/[C@H](OC)[C@H]2C)O5)C3=O)CC12CC2 [Compound 59] | 0.25 µg/mL (≈ 0.254 µM) | 0.125 µg/mL (≈ 0.127 µM) | 0.03 µg/mL
12 | CO[C@H]1/C=C/O[C@@]2(C)Oc3c(C)c(O)c4c(c3C2=O)C2=NC3(CCN(CC(C)C)CC3)NC2=C(NC(=O)/C(C)=C\C=C\[C@H](C)[C@H](O)[C@@H](C)[C@@H](O)[C@@H](C)[C@H](OC(=O)N(C)C(C)C)[C@@H]1C)C4=O [Compound 83] | 0.125 µg/mL (≈ 0.138 µM) | 2 µg/mL (≈ 2.21 µM) | 0.016 µg/mL
13 | CO[C@H]1/C=C/O[C@@]2(C)Oc3c(C)c(O)c4c(c3C2=O)C2=NC3(CCN(CC(C)C)CC3)NC2=C(NC(=O)/C(C)=C\C=C\[C@H](C)[C@H](O)[C@@H](C)[C@@H](O)[C@@H](C)[C@H](OC(=O)N2CCC3CCCCC3C2)[C@@H]1C)C4=O (stereo partly drawn) [Compound 64] | 1 µg/mL (≈ 1.03 µM) | 4 µg/mL (≈ 4.12 µM) | 0.5 µg/mL
14 | CO[C@H]1/C=C/O[C@@]2(C)Oc3c(C)c(O)c4c(c3C2=O)C2=NC3(CCN(CC(C)C)CC3)NC2=C(NC(=O)/C(C)=C\C=C\[C@H](C)[C@H](O)[C@@H](C)[C@@H](O)[C@@H](C)[C@H](OC(=O)N2CCC3(CCN(CCC(C)C)CC3)CC2)[C@@H]1C)C4=O [Compound 71] | 0.25 µg/mL (≈ 0.237 µM) | 0.25 µg/mL (≈ 0.237 µM) | 0.008 µg/mL
15 | CO[C@H]1/C=C/O[C@@]2(C)Oc3c(C)c(O)c4c(c3C2=O)C2=NC3(CCN(CC(C)C)CC3)NC2=C(NC(=O)/C(C)=C\C=C\[C@H](C)[C@H](O)[C@@H](C)[C@@H](O)[C@@H](C)[C@H](OC(=O)N2CCCC3(CCN(C)CC3)C2)[C@@H]1C)C4=O [Compound 20] | 0.06 µg/mL (≈ 0.06 µM) | 1 µg/mL (≈ 1 µM) | ≤ 0.016 µg/mL
16 | CO[C@H]1/C=C/O[C@@]2(C)Oc3c(C)c(O)c4c(c3C2=O)C2=NC3(CCN(CC(C)C)CC3)NC2=C(NC(=O)/C(C)=C\C=C\[C@H](C)[C@H](O)[C@@H](C)[C@@H](O)[C@@H](C)[C@H](OC(=O)N2CCC3(CCN(CC(C)C)CC3)CC2)[C@@H]1C)C4=O [Compound 70] | 0.125 µg/mL (≈ 0.12 µM) | 0.25 µg/mL (≈ 0.24 µM) | 0.004 µg/mL
17 | CO[C@H]1/C=C/O[C@@]2(C)Oc3c(C)c(O)c4c(c3C2=O)C2=NC3(CCN(CC(C)C)CC3)NC2=C(NC(=O)/C(C)=C\C=C\[C@H](C)[C@H](O)[C@@H](C)[C@@H](O)[C@@H](C)[C@H](OC(=O)N2CCCC3(CN(CC5CCCCC5)C3)C2)[C@@H]1C)C4=O [Compound 65] | 0.5 µg/mL (≈ 0.475 µM) | 0.125 µg/mL (≈ 0.119 µM) | 0.004 µg/mL
18 | CO[C@H]1/C=C/O[C@@]2(C)Oc3c(C)c(O)c4c(c3C2=O)C2=NC3(CCN(CC(C)C)CC3)NC2=C(NC(=O)/C(C)=C\C=C\[C@H](C)[C@H](O)[C@@H](C)[C@@H](O)[C@@H](C)[C@H](OC(=O)N2CCN3CCCC3C2)[C@@H]1C)C4=O (stereo partly drawn) [Compound 25] | 0.03 µg/mL (≈ 0.0313 µM) | 2 µg/mL (≈ 2.09 µM) | ≤ 0.016 µg/mL
19 | CO[C@H]1/C=C/O[C@@]2(C)Oc3c(C)c(O)c4c(c3C2=O)C2=NC3(CCN(CC(C)C)CC3)NC2=C(NC(=O)/C(C)=C\C=C\[C@H](C)[C@H](O)[C@@H](C)[C@@H](O)[C@@H](C)[C@H](OC(=O)N(C)C2CC2)[C@@H]1C)C4=O [Compound 82] | 0.06 µg/mL (≈ 0.0665 µM) | 4 µg/mL (≈ 4.43 µM) | 0.008 µg/mL
20 | CO[C@H]1/C=C/O[C@@]2(C)Oc3c(C)c(O)c4c(c3C2=O)C2=NC3(CCN(CC(C)C)CC3)NC2=C(NC(=O)/C(C)=C\C=C\[C@H](C)[C@H](O)[C@@H](C)[C@@H](O)[C@@H](C)[C@H](OC(=O)N2CC3CC2CN3Cc2ccccc2)[C@@H]1C)C4=O [Compound 32] | 0.25 µg/mL (≈ 0.245 µM) | 0.5 µg/mL (≈ 0.491 µM) | 0.03 µg/mL
21 | CO[C@H]1/C=C/O[C@@]2(C)Oc3c(C)c(O)c4c(c3C2=O)C2=NC3(CCN(CC(C)C)CC3)NC2=C(NC(=O)/C(C)=C\C=C\[C@H](C)[C@H](O)[C@@H](C)[C@@H](O)[C@@H](C)[C@H](OC(=O)N2CCNCC2)[C@@H]1C)C4=O [Compound 51] | 0.016 µg/mL (≈ 0.0174 µM) | 4 µg/mL (≈ 4.36 µM) | ≤ 0.001 µg/mL
